Results as given in patent US11167012B2, “Peptide inhibition of CCR3-mediated diseases or conditions” (The Board of Trustees of the University of Illinois, priority 2015, dated 2021).
“Also recorded” adds a separate entry of the source. Primed or numbered codes have the meaning given here. Where no end group is shown, it is not given here. PEG27′ = polyethylene glycol chain of 27 units

What was measured:
[1] = molecular target: T1, CCR3 (Homo sapiens, UniProt P51677); assay: Chemotaxis assay (Transwell), AML14.3D10-CCR3 cells; assay type: cell-based; set-up: host or cells: AML14.3D10-CCR3 (eosinophilic myelocytic cell line, kept under G418); details: for tolerance to inhibition of CCL11-induced chemotaxis: 1 μM for 24, 48 or 72 hour, CCL11 12 nM; for inhibition of CCR3-mediated chemotaxis induced by Eotaxin/CCL11, RANTES/CCL5 and MEC/CCL28: AML14.3D10-CCR3 cells, R3-2-1 0.4, 2 or 10 μM
T1 sequence (P51677 1-355): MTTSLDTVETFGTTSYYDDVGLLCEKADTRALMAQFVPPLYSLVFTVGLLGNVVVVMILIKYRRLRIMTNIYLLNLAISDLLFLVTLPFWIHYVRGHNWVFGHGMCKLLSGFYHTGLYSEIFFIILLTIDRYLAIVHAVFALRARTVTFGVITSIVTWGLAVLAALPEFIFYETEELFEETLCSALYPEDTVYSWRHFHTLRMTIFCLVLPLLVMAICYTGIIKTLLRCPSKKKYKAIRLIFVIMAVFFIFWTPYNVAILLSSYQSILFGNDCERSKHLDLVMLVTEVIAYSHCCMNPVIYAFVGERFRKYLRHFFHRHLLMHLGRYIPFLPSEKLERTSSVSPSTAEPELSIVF
Description: AML14.3D10-CCR3 (ATCC, Manassas, Va.; Daugherty, et al. (1996) J. Exp. Med. 183:2349-2354) were maintained in RPMI-1640 supplemented with 10% FBS, 1.5 g/L sodium bicarbonate, 4.5 g/L glucose, 2 mM L-glutamine, 10 mM HEPES, 1 mM sodium pyruvate, 50 μM β-mercaptoethanol, and 2 mg/ml G418 in a humidified incubator with 5% CO2 at 37° C.
Cell migration was determined using a 96-well […]® system (Corning, Tewksbury, Mass.). […] The two chambers were separated by a polycarbonate filter with 5 μm pores. For AML14.3D10-CCR3 cells, 2×10^5 cells/well were resuspended in RPMI-1640+0.1% BSA and allowed to migrate for 4 hours at 37° C. For blood eosinophils, 1×10^5 cells/well were resuspended in X-VIVO 10+0.5% BSA and allowed to migrate for 3 hours at 37° C. Migrated cells were counted using a Beckman QUANTA SC flow cytometer. All experiments were performed in duplicate. Checkerboard analysis was done to distinguish chemotaxis from chemokinesis.
(§1) Primary eosinophils and the stable CCR3+eosinophilic myelocytic cell line, AML14.3D10-CCR3 (Daugherty, et al. (1996) J. Exp. Med. 183:2349-2354) undergo CCR3-mediated chemotaxis induced by multiple chemokines including eotaxin/CCL11, RANTES/CCL5, MCP-4/CCL13, and MEC/CCL28 (Daugherty, et al. (1996) J. Exp. Med. 183:2349-2354; Pan, et al. (2000) J. Immunol. 165:2943-2949).

[2] = molecular target: T1, CCR3; assay: CCR3 surface expression and internalization by flow cytometry, AML14.3D10-CCR3 cells; assay type: cell-based; set-up: host or cells: AML14.3D10-CCR3 (eosinophilic myelocytic cell line, kept under G418); details: for CCR3 internalization or surface accumulation on prolonged treatment: 1 μM for 24, 48 or 72 hour, with or without CCL11 (12 nM); for CCL11-induced receptor internalization: 1 μM, added concurrently with 12 nM CCL11
Description: Error bars represent SEM. *p<0.05, compared to untreated cells; n=3.
To assess surface expression of CCR3, cells were stained using PE-conjugated anti-human CCR3 antibody (clone 5E8, BioLegend) or PE-conjugated isotype-matched control after blocking with 10% human AB serum. To determine ligand-induced CCR3 internalization, cells were incubated with various chemokines for 1 hour at 37° C., washed once in staining buffer (PBS+0.5% BSA+0.1% NaN3) before being stained as above. After antibody staining, cells were fixed in 2% paraformaldehyde and analyzed on a QUANTA SC flow cytometer (Beckman Coulter, Indianapolis, Ind.).

[3] = test system: ERK1/2 phosphorylation; assay: Signal transduction assay, Western blotting of phospho-ERK1/2 in AML14.3D10-CCR3 cells; assay type: cell-based, human; details: 10 μM, CCL11-induced
Description: Phospho-ERK was detected using a specific antibody. The membrane was stripped and reprobed for total ERK1/2 as loading control. Immunoblots were quantified by densitometry using ImageJ. PD: PD184161, MEK inhibitor.
AML14.3D10-CCR3 cells were serum starved for 16 hours. Cells were pretreated with vehicle control, R3-2-1 or PD184161 for 30 minutes at 37° C., and subsequently stimulated with 8 nM CCL5 or CCL11 for 2 minutes. Stimulation was stopped by adding ice cold PBS. Cells were centrifuged and lysed in RIPA buffer containing protease and phosphatase inhibitors. Cell lysates were resolved on a 12% SDS-PAGE gel (10 μg/lane), transferred to PVDF membrane and blocked in 5% milk. Phospho-ERK1/2 was detected using rabbit monoclonal antibody (clone D13.14.4E, Cell Signaling Technology, Danvers, Mass.) and secondary goat anti-rabbit IgG-HRP (Santa Cruz Biotechnology, Dallas, Tex.). As a loading control, the membrane was subsequently stripped and re-probed with an antibody against total ERK1/2 (clone 127F5, Cell Signaling Technology).
Concurrent to ligand binding and activation, CCR3 undergoes ligand-induced desensitization and internalization (Zimmermann, et al. (1999) J. Biol. Chem. 274:12611-12618). As part of the desensitization process, CCR3 is degraded. This is thought to occur via β-arrestin recruitment to phosphorylated CCR3 and subsequent sequestration of the receptor into endosomal compartments, eventually leading to degradation. β-arrestin signaling is central in this process and is characterized by a late activation of signaling pathways such as MAPK/ERK1/2, in contrast to acute activation by G proteins. […] Therefore, the R3-2-1 peptide is a biased antagonist in that it inhibits the […] of CCL11 ligand-induced β-arrestin signaling, whereas the small molecule inhibitors are unbiased antagonists.

[4] = test system: eosinophil recruitment into the esophageal epithelium; assay: Mouse model of EoE, oxazalone-challenged L2-IL5 transgenic mice; assay type: in vivo; details: i.v., 24 hours after last OXA challenge
Description: Skin sensitized L2-IL5 transgenic mice received topical esophageal oxazalone (OXA) challenges by gavage (i.e.) on days 5, 8 and 12 (FIG. 5A). R3-2-1 peptide nanoparticles, control peptide (R3-2-3) or CCR3 inhibitor UCB35625 (UCB) were given immediately before on days 5, 8, 10 and 12 (FIG. 5A). Esophageal eosinophilia was assessed 24 hours after the last OXA challenge and treatment (day 13). […] Error bars represent SEM.
Mice were treated i.v. with R3-2-1 peptide, scrambled R3-2-3 control peptide ([…]-PEG27-NH2; SEQ ID NO:24), or the allosteric non-selective CCR3 inhibitor, UCB35625. Eosinophil recruitment into the esophageal epithelium was assessed 24 hours after the last OXA challenge by counting eosinophils in 9 high power fields (hpf) covering the total esophagus or 3 hpf covering the distal esophagus.

[5] = molecular target: T1, CCR3; assay: Eotaxin-induced chemotaxis of 4DE4-CCR3 cells; assay type: cell-based; set-up: expressed in transfected cells; host or cells: 4DE4 mouse pre-B cell lymphoma line; details: 80 nM eotaxin, 4 hours
Description: Cells were pretreated with, and then allowed to migrate towards, 80 nM eotaxin in the presence of the various CCR3 transmembrane peptides for 4 hours. Data are from three independent experiments. Error bars represent SEM.
To determine the effects of these peptides on CCR3-mediated chemotaxis, 4DE4-CCR3 cells were allowed to migrate to eotaxin/CCL11 in the presence of each peptide. 4DE4-CCR3, a mouse pre-B cell lymphoma line engineered to stably express human CCR3, has been used extensively to study CCR3 expression and CCR3-mediated chemotaxis.

[6] = test system: 4DE4-CCR3 cells; assay: Cytotoxicity in 4DE4-CCR3 cells; assay type: cell-based, mouse; details: concentrations tested in chemotaxis assay
[7] = molecular target: T1, CCR3; assay: Chemotaxis assay (Transwell), blood eosinophils; assay type: cell-based; set-up: host or cells: AML14.3D10-CCR3 (eosinophilic myelocytic cell line, kept under G418); details: scramble peptide control
Description: Blood eosinophils were purified from anti-coagulated blood drawn from mild allergic asthmatic subjects. Peripheral blood was subjected to density gradient centrifugation over FICOLL-PAQUE® Plus (GE Healthcare, Pittsburgh, Pa.) media to obtain a pellet containing erythrocytes and granulocytes. After erythrocyte lysis via hypotonic shock, eosinophils were purified by negative selection using a cocktail of antibody-conjugated magnetic beads against non-eosinophils (Miltenyi Biotec, Auburn, Calif.). The eosinophils were resuspended in X-VIVO 10 without phenol red. The purity and viability of the eosinophils obtained was routinely >97% as assessed by Hema III and trypan blue staining, respectively.
Cell migration was determined using a 96-well TRANSWELL® system (Corning, Tewksbury, Mass.). Briefly, 200 μl chemoattractant or control medium was added to the lower chamber while 100 μl cells were added to the upper chamber. The two chambers were separated by a polycarbonate filter with 5 μm pores. For AML14.3D10-CCR3 cells, 2×10^5 cells/well were resuspended in RPMI-1640+0.1% BSA and allowed to migrate for 4 hours at 37° C. […] Migrated cells were counted using a Beckman QUANTA SC flow cytometer. All experiments were performed in duplicate. Checkerboard analysis was done to distinguish chemotaxis from chemokinesis.
as §1, with “165:2943-2949). […] In addition, R3-2-1 inhibits chemotaxis of both AML14.3D10-CCR3 and blood eosinophils induced by CCL11/Eotaxin-1, CCL24/Eotaxin-2, and CCL26/Eotaxin-3 in a dose-dependent fashion (Table 3).” for “165:2943-2949).”

Compound	CCL11-induced receptor internalization [2]	acute (2-5 minutes) and late (30 minutes) phase phosphorylation of ERK1/2 [3]	cytotoxicity [6]	also measured
COC(=O)[C@H](Cc1ccc([N+](=O)[O-])cc1)NC(=O)c1cccc2ccccc12 [SB328437, N-(1-Naphthalenylcarbonyl)-4-nitro-L-phenylalanine methyl ester, reference compound]	significantly inhibit chemokine-induced CCR3 internalization	inhibits both acute and late phase phosphorylation		tolerance to inhibition of CCL11-induced chemotaxis [1]: slowly lose their ability to antagonize CCL11-induced chemotaxis; inhibition of CCR3-mediated chemotaxis induced by Eotaxin/CCL11, RANTES/CCL5 and MEC/CCL28 [1]: only inhibits CCL11-induced but not CCL5- or CCL28-induced chemotaxis; CCR3 internalization or surface accumulation on prolonged treatment [2]: surface accumulation
CC[N+]1(C/C2=C/CCCCCC2)CCC(NC(=O)C2c3cc(Cl)ccc3Oc3ccc(Cl)cc32)CC1.[I-] (stereo not drawn) [UCB35625, 1,4-trans-1-(1-Cycloocten-1-ylmethyl)-4-[[(2,7-dichloro-9H-xanthen-9-yl)carbonyl]amino]-1-ethylpiperidinium iodide, reference compound]	significantly inhibit chemokine-induced CCR3 internalization	inhibits the late phase to a higher degree than the early phase phosphorylation		tolerance to inhibition of CCL11-induced chemotaxis [1]: slowly lose their ability to antagonize CCL11-induced chemotaxis; inhibition of CCR3-mediated chemotaxis induced by Eotaxin/CCL11, RANTES/CCL5 and MEC/CCL28 [1]: potent inhibitor of chemotaxis induced by multiple CCR3 agonists in vitro; CCR3 internalization or surface accumulation on prolonged treatment [2]: surface accumulation; eosinophil recruitment into distal and total esophageal epithelium [4]: had no effect; also recorded: ineffective in reducing eosinophil recruitment
Ac-KDDDLLSGFYHTGLYSEIFFIILLTI [TM3]				inhibition of eotaxin-induced chemotaxis of 4DE4-CCR3 cells [5]: no significant CCR3 antagonism
Ac-KDDDQFVPPLYSLVFTVGLLGNVVVVMILI [TM1]			moderately cytotoxic	
Ac-VTFGVITSIVTWGLAVLAALPEFIFDDDK [TM4]				inhibition of eotaxin-induced chemotaxis of 4DE4-CCR3 cells [5]: no significant CCR3 antagonism
CDDDTIFCLVLPLLVMAICYTGII [TM5]			highly cytotoxic	
CDDDVMLVTEVIAYSHCCMNPVIYAFV [TM7]			highly cytotoxic	
LIFVIMAVFFIFWTPYNVAILDDDC [TM6]			highly cytotoxic	
LLNLAISDLLFLVTLPFWIHYDDDC [TM2]			undetectable or low cytotoxicity	
YLFLLVTVFHIWLPHNRGHVWGFDDD-PEG27-NH2 (YLFLLVTVFHIWLPHNRGHVWGFDDD-{PEG27′-NH2}) [Peptide R3-2-3, reference compound]	neither R3-2-1 (1 μM) nor R3-2-3 (1 μM) interfere with CCL11-induced receptor internalization	does not inhibit either acute or late phase phosphorylation		CCL11-, CCL24-, or CCL26-induced chemotaxis of blood eosinophils [7]: did not inhibit
